From patent US9056843B2, “Trifluoromethyl-oxadiazole derivatives and their use in the treatment of disease” (NOVARTIS AG, priority 2011, dated 2015)

Tests used:
Type in all cases: biochemical
[1] = biological target: Human recombinant HDAC4 (Homo sapiens (Human), UniProt P56524); assay: Test 2: HDAC4 assay (fluorogenic substrate, 5 μM acetyl-Gly-Ala-Lys(ε-trifluoroacetyl)-AMC); conditions: Test 2 (values without asterisk)
How it was run: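 After the reaction, bovine trypsin (300 nM solution) was added for 15 min at RT to develop the signal; fluorescence read at 360/450 nm. No-enzyme background subtracted; IC50 from 4-parameter logistic fit of dose-response curves.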

[2] = biological target: Human recombinant full length HDAC1 (Homo sapiens (Human), UniProt Q13547); assay: Test 3: HDAC1 assay; conditions: substrate 5 μM acetyl-Gly-Ala-Lys(acetyl)-AMC
Human recombinant full length HDAC1, sequence (Q13547 whole entry): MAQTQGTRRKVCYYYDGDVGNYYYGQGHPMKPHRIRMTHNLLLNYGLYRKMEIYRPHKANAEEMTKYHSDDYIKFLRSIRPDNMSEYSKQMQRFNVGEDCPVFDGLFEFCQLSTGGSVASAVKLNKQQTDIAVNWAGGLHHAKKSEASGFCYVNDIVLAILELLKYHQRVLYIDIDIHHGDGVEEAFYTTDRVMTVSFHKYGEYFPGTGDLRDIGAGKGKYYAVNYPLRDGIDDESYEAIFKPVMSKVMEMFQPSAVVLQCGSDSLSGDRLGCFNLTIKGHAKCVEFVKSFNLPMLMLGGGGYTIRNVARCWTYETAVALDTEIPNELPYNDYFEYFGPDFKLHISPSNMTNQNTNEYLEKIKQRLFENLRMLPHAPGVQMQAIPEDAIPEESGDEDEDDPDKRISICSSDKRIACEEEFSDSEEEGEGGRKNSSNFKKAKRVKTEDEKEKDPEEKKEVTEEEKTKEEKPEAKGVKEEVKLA
How it was run: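 Baculovirus-expressed full-length human HDAC1 with 5 μM acetyl-Gly-Ala-Lys(acetyl)-AMC substrate, developed with trypsin 15 min at room temperature.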

[3] = biological target: Human recombinant full length HDAC6 (Homo sapiens (Human), UniProt Q9UBN7); assay: Test 4: HDAC6 assay; conditions: Test 4; substrate 5 μM acetyl-Gly-Ala-Lys(acetyl)-AMC
Human recombinant full length HDAC6, sequence (Q9UBN7 whole entry): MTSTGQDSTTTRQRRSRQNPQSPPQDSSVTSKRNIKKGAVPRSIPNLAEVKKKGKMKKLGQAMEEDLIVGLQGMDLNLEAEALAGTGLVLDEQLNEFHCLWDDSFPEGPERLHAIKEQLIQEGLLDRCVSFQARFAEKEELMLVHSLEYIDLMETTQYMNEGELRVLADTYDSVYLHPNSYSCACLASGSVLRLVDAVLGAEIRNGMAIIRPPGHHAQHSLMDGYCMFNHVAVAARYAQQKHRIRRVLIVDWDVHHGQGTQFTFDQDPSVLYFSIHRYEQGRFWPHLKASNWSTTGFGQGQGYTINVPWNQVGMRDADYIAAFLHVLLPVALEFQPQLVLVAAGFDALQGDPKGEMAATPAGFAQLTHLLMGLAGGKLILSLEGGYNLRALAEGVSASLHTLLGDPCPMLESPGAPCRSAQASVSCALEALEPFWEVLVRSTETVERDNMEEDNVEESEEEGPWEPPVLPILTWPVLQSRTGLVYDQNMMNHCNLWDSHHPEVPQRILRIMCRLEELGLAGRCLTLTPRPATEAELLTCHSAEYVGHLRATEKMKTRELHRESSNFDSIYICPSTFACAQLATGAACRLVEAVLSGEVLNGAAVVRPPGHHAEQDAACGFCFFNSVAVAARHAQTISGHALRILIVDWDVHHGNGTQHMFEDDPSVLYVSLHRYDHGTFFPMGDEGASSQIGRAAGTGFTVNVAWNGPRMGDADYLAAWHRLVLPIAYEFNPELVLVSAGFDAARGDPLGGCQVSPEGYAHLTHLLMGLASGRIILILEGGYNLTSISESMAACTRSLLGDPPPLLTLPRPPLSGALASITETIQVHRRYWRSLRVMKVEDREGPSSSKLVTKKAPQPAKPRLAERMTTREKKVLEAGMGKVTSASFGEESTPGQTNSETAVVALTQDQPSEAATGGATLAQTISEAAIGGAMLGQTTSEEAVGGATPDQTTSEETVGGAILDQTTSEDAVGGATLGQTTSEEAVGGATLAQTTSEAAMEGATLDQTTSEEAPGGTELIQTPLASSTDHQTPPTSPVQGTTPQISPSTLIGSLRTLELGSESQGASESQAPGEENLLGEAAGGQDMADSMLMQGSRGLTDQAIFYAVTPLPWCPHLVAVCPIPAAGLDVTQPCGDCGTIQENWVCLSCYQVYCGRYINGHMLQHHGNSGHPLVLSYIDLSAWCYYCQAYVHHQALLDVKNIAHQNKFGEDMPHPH
How it was run: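 Baculovirus-expressed full-length recombinant human HDAC6 with 5 μM acetyl-Gly-Ala-Lys(acetyl)-AMC substrate, developed with trypsin 15 min at room temperature.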

Human recombinant HDAC4, sequence (P56524 2-1084): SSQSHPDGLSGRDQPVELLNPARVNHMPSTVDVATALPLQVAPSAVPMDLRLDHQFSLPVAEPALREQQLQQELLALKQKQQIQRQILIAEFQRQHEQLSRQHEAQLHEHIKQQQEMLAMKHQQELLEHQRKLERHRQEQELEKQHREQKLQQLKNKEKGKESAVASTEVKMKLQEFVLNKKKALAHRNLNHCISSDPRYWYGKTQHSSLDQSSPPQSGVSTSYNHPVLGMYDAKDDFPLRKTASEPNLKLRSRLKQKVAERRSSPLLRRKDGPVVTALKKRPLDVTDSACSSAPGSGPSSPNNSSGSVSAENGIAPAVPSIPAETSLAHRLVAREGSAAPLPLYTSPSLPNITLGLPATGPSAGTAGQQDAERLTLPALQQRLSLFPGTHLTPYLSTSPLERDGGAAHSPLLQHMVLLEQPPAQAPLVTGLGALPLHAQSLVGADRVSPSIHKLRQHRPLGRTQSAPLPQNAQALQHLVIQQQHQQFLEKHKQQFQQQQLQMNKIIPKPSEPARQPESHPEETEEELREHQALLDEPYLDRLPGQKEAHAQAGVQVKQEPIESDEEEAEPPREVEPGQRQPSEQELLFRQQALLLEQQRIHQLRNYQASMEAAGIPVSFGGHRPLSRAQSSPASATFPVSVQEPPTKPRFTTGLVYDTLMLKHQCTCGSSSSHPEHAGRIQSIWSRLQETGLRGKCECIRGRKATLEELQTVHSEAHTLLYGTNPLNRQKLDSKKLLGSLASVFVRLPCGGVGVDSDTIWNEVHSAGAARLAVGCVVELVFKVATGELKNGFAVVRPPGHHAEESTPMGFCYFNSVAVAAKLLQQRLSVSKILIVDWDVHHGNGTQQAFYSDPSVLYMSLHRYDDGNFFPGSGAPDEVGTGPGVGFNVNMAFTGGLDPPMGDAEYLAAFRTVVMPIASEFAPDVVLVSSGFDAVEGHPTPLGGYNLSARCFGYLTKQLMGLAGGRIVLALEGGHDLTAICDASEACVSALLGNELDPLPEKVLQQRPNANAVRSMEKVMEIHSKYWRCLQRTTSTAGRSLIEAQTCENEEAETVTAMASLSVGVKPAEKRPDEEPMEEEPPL

SMILES	IC50 [1]	IC50 [2]	IC50 [3]
CN(C)CCCNS(=O)(=O)c1ccc(-c2noc(C(F)(F)F)n2)cc1 [Example 113, N-(3-(dimethylamino)propyl)-4-(5-(trifluoromethyl)-1,2,4-oxadiazol-3-yl)benzenesulfonamide]	0.3 µM	> 10 µM	6.2 µM
CN(C)S(=O)(=O)c1ccc(-c2noc(C(F)(F)F)n2)cc1 [Example 114, N,N-dimethyl-4-(5-(trifluoromethyl)-1,2,4-oxadiazol-3-yl)benzenesulfonamide]	0.63 µM	> 10 µM	9.1 µM
CN1CCC(CNS(=O)(=O)c2ccc(-c3noc(C(F)(F)F)n3)cc2)C1 (stereo not drawn) [Example 115, N-((1-methylpyrrolidin-3-yl)methyl)-4-(5-(trifluoromethyl)-1,2,4-oxadiazol-3-yl)benzenesulfonamide]	2.7 µM	> 10 µM	> 10 µM
O=S(=O)(NCCCO)c1ccc(-c2noc(C(F)(F)F)n2)cc1 [Example 116, N-(3-hydroxypropyl)-4-(5-(trifluoromethyl)-1,2,4-oxadiazol-3-yl)benzenesulfonamide]	0.16 µM	> 10 µM	3.1 µM
CN(C)C[C@H](Cc1ccccc1)NC(=O)c1ccc(-c2noc(C(F)(F)F)n2)cc1F [Example 117, (S)—N-(1-(dimethylamino)-3-phenylpropan-2-yl)-2-fluoro-4-(5-(trifluoromethyl)-1,2,4-oxadiazol-3-yl)benzamide]	0.11 µM	6.7 µM	1.5 µM
CN(C)C[C@@H](Cc1ccccc1)NC(=O)c1ccc(-c2noc(C(F)(F)F)n2)cc1F [Example 118, (R)—N-(1-(dimethylamino)-3-phenylpropan-2-yl)-2-fluoro-4-(5-(trifluoromethyl)-1,2,4-oxadiazol-3-yl)benzamide]	0.22 µM	> 10 µM	4.7 µM
CN(C)CC(C)(C)NC(=O)c1ccc(-c2noc(C(F)(F)F)n2)cc1 [Example 119, N-(1-(dimethylamino)-2-methylpropan-2-yl)-4-(5-(trifluoromethyl)-1,2,4-oxadiazol-3-yl)benzamide]	0.036 µM	> 10 µM	> 10 µM
CC(CNC(=O)c1ccc(-c2noc(C(F)(F)F)n2)cc1F)N(C)C (stereo not drawn) [Example 122, N-(2-(dimethylamino)propyl)-2-fluoro-4-(5-(trifluoromethyl)-1,2,4-oxadiazol-3-yl)benzamide]	0.085 µM	9 µM	2.4 µM
CCN(CC)C[C@@H](C)NC(=O)c1ccc(-c2noc(C(F)(F)F)n2)cc1F [Example 126, (R)—N-(1-(diethylamino)propan-2-yl)-2-fluoro-4-(5-(trifluoromethyl)-1,2,4-oxadiazol-3-yl)benzamide]	0.0089 µM	> 10 µM	3.9 µM
CCN(CC)C[C@H](C)NC(=O)c1ccc(-c2noc(C(F)(F)F)n2)cc1F [Example 127, (S)—N-(1-(diethylamino)propan-2-yl)-2-fluoro-4-(5-(trifluoromethyl)-1,2,4-oxadiazol-3-yl)benzamide]	0.044 µM	> 10 µM	> 10 µM
CCN(CC)C[C@H](NC(=O)c1ccc(-c2noc(C(F)(F)F)n2)cc1F)C(C)C [Example 135, (R)—N-(1-(diethylamino)-3-methylbutan-2-yl)-2-fluoro-4-(5-(trifluoromethyl)-1,2,4-oxadiazol-3-yl)benzamide]	0.01 µM	> 10 µM	> 10 µM
CCCN(CCC)C[C@@H](C)NC(=O)c1ccc(-c2noc(C(F)(F)F)n2)cc1F [Example 141, (R)—N-(1-(dipropylamino)propan-2-yl)-2-fluoro-4-(5-(trifluoromethyl)-1,2,4-oxadiazol-3-yl)benzamide]	0.0014 µM	4.2 µM	1.4 µM
CC(C)N(C)C[C@@H](C)NC(=O)c1ccc(-c2noc(C(F)(F)F)n2)cc1F [Example 142, (R)-2-fluoro-N-(1-(isopropyl(methyl)amino)propan-2-yl)-4-(5-(trifluoromethyl)-1,2,4-oxadiazol-3-yl)benzamide]	0.0072 µM	> 10 µM	5.4 µM
CCCN(C)C[C@@H](C)NC(=O)c1ccc(-c2noc(C(F)(F)F)n2)cc1F [Example 143, (R)-2-fluoro-N-(1-(methyl(propyl)amino)propan-2-yl)-4-(5-(trifluoromethyl)-1,2,4-oxadiazol-3-yl)benzamide]	0.0012 µM	5.8 µM	3.3 µM
CC(CN(C)C)N(C)C(=O)c1ccc(-c2noc(C(F)(F)F)n2)cc1F (stereo not drawn) [Example 144, N-(1-(dimethylamino)propan-2-yl)-2-fluoro-N-methyl-4-(5-(trifluoromethyl)-1,2,4-oxadiazol-3-yl)benzamide]	0.18 µM	> 10 µM	> 10 µM

The remaining lines, values ahead:

IC50 [1]	IC50 [2]	IC50 [3]	SMILES
0.026 µM	> 10 µM	4.5 µM	C[C@H](CN1CCCC1)NC(=O)c1ccc(-c2noc(C(F)(F)F)n2)cc1F [Example 128, (R)-2-fluoro-N-(1-(pyrrolidin-1-yl)propan-2-yl)-4-(5-(trifluoromethyl)-1,2,4-oxadiazol-3-yl)benzamide]
0.013 µM	9.05 µM	3 µM	C[C@H](CN1CCCCC1)NC(=O)c1ccc(-c2noc(C(F)(F)F)n2)cc1F [Example 129, (R)-2-fluoro-N-(1-(piperidin-1-yl)propan-2-yl)-4-(5-(trifluoromethyl)-1,2,4-oxadiazol-3-yl)benzamide]
0.011 µM	> 10 µM	9.1 µM	C[C@H](CN1CCCC1)NC(=O)c1ccc(-c2noc(C(F)(F)F)n2)cc1 [Example 130, (R)—N-(1-(pyrrolidin-1-yl)propan-2-yl)-4-(5-(trifluoromethyl)-1,2,4-oxadiazol-3-yl)benzamide]
0.01 µM	6.55 µM	7.5 µM	C[C@H](CN1CCCCC1)NC(=O)c1ccc(-c2noc(C(F)(F)F)n2)cc1 [Example 131, (R)—N-(1-(piperidin-1-yl)propan-2-yl)-4-(5-(trifluoromethyl)-1,2,4-oxadiazol-3-yl)benzamide]
0.005 µM	9.2 µM	8.3 µM	CCN(CC)C[C@@H](C)NC(=O)c1ccc(-c2noc(C(F)(F)F)n2)cc1 [Example 132, (R)—N-(1-(diethylamino)propan-2-yl)-4-(5-(trifluoromethyl)-1,2,4-oxadiazol-3-yl)benzamide]
0.0089 µM	> 10 µM	> 10 µM	CCN(C)C[C@@H](C)NC(=O)c1ccc(-c2noc(C(F)(F)F)n2)cc1 [Example 136, (R)—N-(1-(ethyl(methyl)amino)propan-2-yl)-4-(5-(trifluoromethyl)-1,2,4-oxadiazol-3-yl)benzamide]
0.0045 µM	> 10 µM	> 10 µM	CC(C)N(C)C[C@@H](C)NC(=O)c1ccc(-c2noc(C(F)(F)F)n2)cc1 [Example 138, (R)—N-(1-(isopropyl(methyl)amino)propan-2-yl)-4-(5-(trifluoromethyl)-1,2,4-oxadiazol-3-yl)benzamide]
0.001 µM	4 µM	9.6 µM	CCCN(C)C[C@@H](C)NC(=O)c1ccc(-c2noc(C(F)(F)F)n2)cc1 [Example 139, (R)—N-(1-(methyl(propyl)amino)propan-2-yl)-4-(5-(trifluoromethyl)-1,2,4-oxadiazol-3-yl)benzamide]
